Reference: paper PMC12797170, “Potent Competitive Inhibitors of Ecto-5′-nucleotidase (CD73) based on 6‑(Het)aryl-7-deazapurine Ribonucleoside 5′‑O‑Bisphosphonates” (ACS Pharmacology & Translational Science, 2025)
≈ marks a conversion by molar mass, not a printed value. Like-named read-outs stand apart in the source and are kept apart here.

What was measured:
in vitro [1] = settings: human, plasma
[2] = biological target: T1, recombinant human CD73 (hCD73) (Homo sapiens, UniProt P21589); assay: CD73 activity assay on recombinant human CD73; assay type: biochemical; settings: ΔGexp = RT ln Ki
T1 sequence (P21589 27-574): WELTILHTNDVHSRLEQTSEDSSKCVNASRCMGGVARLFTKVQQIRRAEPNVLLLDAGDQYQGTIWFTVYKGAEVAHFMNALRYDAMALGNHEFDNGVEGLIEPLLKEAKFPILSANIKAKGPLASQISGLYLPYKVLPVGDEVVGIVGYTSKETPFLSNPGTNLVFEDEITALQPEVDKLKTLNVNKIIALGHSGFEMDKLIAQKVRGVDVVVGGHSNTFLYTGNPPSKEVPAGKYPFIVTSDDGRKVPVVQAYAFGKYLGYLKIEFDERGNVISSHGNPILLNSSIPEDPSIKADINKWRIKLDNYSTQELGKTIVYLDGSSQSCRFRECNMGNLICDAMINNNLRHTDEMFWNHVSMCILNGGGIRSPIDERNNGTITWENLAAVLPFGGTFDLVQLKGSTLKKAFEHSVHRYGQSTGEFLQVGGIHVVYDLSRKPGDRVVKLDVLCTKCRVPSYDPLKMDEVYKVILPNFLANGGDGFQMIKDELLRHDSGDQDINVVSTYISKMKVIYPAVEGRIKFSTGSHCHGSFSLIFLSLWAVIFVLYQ

[3] = In vivo pharmacokinetic study, intravenous; parameters: species or system male CD-1 mice; settings: for half-life / t1/2 (half-life): footnote: t1/2 stability in plasma, text: half-life in mouse PK
Description: The pharmacokinetic study was performed by Bienta (Enamine Biology Services) using male CD-1 mice (3 animals, 9 weeks old, body weight ranging from 29.2 to 33.7 g) following intravenous administration. Levels of the test compound were determined by LC-MS/MS in blood plasma over time (seven sampling time points: 5, 15, 30, 60, 120, 240, and 480 min) after a single dose.
Animal treatment and samples preparation were conducted by the Animal Laboratory personnel at Enamine/Bienta.

[4] = Plasma protein binding, mouse plasma; assay type: in vitro ADME; settings: mouse, plasma
[5] = Microsomal stability assay, human liver microsomes; assay type: in vitro ADME; settings: for Mics (hu) comp remaining 60 min: 10 μM; for microsomal CLint at 10 µM: pooled liver microsomes, pH 7.4, read-out: Mics (hu) CLint
in vitro [6] = settings: mouse, plasma
[7] = Plasma protein binding, equilibrium dialysis, human plasma; assay type: in vitro ADME; settings: undiluted plasma
HepG2 = assay: In vitro cytotoxic activity; assay type: cell-based; settings: Homo sapiens
Description: (§1) All the compounds were also tested for their in vitro cytotoxic activity on a small panel of four cancer cell lines (CCRF-CEM, HepG2, HeLa S3, HL-60) and nonmalignant human dermal fibroblasts (NHDF).

HeLa S3 = assay: In vitro cytotoxic activity; assay type: cell-based; settings: Homo sapiens
Description: as §1

HL-60 = assay: In vitro cytotoxic activity; assay type: cell-based; settings: Homo sapiens
Description: as §1

CCRF-CEM = assay: In vitro cytotoxic activity; assay type: cell-based; settings: Homo sapiens
Description: as §1

[8] = system: nonmalignant human dermal fibroblasts (NHDF); assay: In vitro cytotoxic activity; assay type: cell-based
Description: as §1

[9] = Kinetic solubility in PBS; assay type: physicochemical; settings: phosphate-buffered saline, pH 7.4, aqueous buffer, kinetic from dmso stock
Outline: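 Echo-MS quantitation with calibration from 0.05 to 4 μM, after 1:99 dilution of filtrate into 50% acetonitrile. Filtrate came from a 100 μM PBS (pH 7.4) solution equilibrated 2 h at room temperature with shaking, in duplicate.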

[10] = Microsomal stability assay, mouse liver microsomes; assay type: in vitro ADME; settings: for Mics (m) comp remaining 60 min: 10 μM; for microsomal CLint at 10 µM: pooled liver microsomes, pH 7.4, read-out: Mics (m) CLint
[11] = male, CD-1, mouse, plasma, iv, 1 mg/kg, intravenous
[12] = mouse, plasma, 1 mg/kg, male CD-1 mice, intravenous, single dose, read-out: Cl (obs), observed clearance
[13] = mouse plasma protein binding, read-out: PPB (m) (converted)
[14] = human plasma protein binding, read-out: PPB (hu) (converted)
[15] = Tables 1 and 3, human plasma as printed in footnote, read-out: fup, fraction unbound in human plasma
[16] = in vivo PK in mice, unit not given

## COC(=O)c1ccc2cc(-c3nc(Cl)nc4c3ccn4[C@@H]3O[C@H](COP(=O)(O)CP(=O)(O)O)[C@@H](O)[C@H]3O)ccc2c1 [7B.29]
In vitro [1]
  half-life at 10 µM: > 120 min
[2]
  dG_exp, experimental binding free energy: –14.6 kcal/mol
[3]; [11]
  half-life: 8.3 min
[3]; [12]
  clearance: 7.2 mL/min/kg
[4]; Tables 2 and 4, mouse plasma, read-out: fup, fraction unbound in mouse plasma
  fraction unbound at 4 h, 100 µM: 0.23
[4]; [13]
  fraction unbound at 4 h, 100 µM: 0.234
[5]
  Mics (hu) comp remaining 60 min: 132%
  microsomal CLint at 10 µM: < 2 µL/min/mg
In vitro [6]
  half-life at 10 µM: > 120 min
[7]; [14]
  fraction unbound at 4 h, 100 µM: ≤ 0.01
HepG2
  IC50: > 10 µM
HeLa S3
  IC50: > 10 µM
HL-60
  IC50: > 10 µM
CCRF-CEM
  IC50: > 10 µM
[8]
  IC50: > 10 µM
[9]
  solubility at 2 h: 85 µM (≈ 53.4 µg/mL)
[10]
  Mics (m) comp remaining 60 min: 112%
  microsomal CLint at 10 µM: < 2 µL/min/mg

## O=P(O)(O)CP(=O)(O)OC[C@H]1O[C@@H](n2ccc3c(-c4cccc5ccccc45)ncnc32)[C@H](O)[C@@H]1O [4A.6]
In vitro [1]
  half-life at 10 µM: > 120 min
[2]
  dG_exp, experimental binding free energy: –14.4 kcal/mol
[3]; [11]
  half-life: 170 min
[3]; male, CD-1, mouse, plasma, iv, 1 mg/kg, in vivo PK in mice, unit inferred, read-out: clearance
  clearance: 1.4 mL/min/kg
[4]; [13]
  fraction unbound at 4 h, 100 µM: 0.626
In vitro [6]
  half-life at 10 µM: > 120 min
[7]; [15]
  fraction unbound at 4 h, 100 µM: 0.63
[7]; [14]
  fraction unbound at 4 h, 100 µM: 0.086
HepG2
  IC50: > 10 µM
HeLa S3
  IC50: > 10 µM
HL-60
  IC50: > 10 µM
CCRF-CEM
  IC50: > 10 µM
[8]
  IC50: > 10 µM
[9]
  solubility at 2 h: 62 µM (≈ 33.2 µg/mL)

## O=P(O)(O)CP(=O)(O)OC[C@H]1O[C@@H](n2ccc3c(-c4cccc5c4oc4ccccc45)ncnc32)[C@H](O)[C@@H]1O [4A.10]
In vitro [1]
  half-life at 10 µM: > 120 min
[2]
  dG_exp, experimental binding free energy: –12.9 kcal/mol
[3]; [16]
  clearance: moderate clearance
[3]; [11]
  half-life: 143 min
[3]; [12]
  clearance: 3.5 mL/min/kg
[4]; [13]
  fraction unbound at 4 h, 100 µM: 0.135
In vitro [6]
  half-life at 10 µM: > 120 min
[7]; [15]
  fraction unbound at 4 h, 100 µM: 0.13
[7]; [14]
  fraction unbound at 4 h, 100 µM: 0.004
HepG2
  IC50: > 10 µM
HeLa S3
  IC50: > 10 µM
HL-60
  IC50: 9.5 µM
CCRF-CEM
  IC50: > 10 µM
[8]
  IC50: > 10 µM
[9]
  solubility at 2 h: > 100 µM

## O=P(O)(O)CP(=O)(O)OC[C@H]1O[C@@H](n2ccc3c(-c4cc5ccccc5o4)ncnc32)[C@H](O)[C@@H]1O [4A.8]
In vitro [1]
  half-life at 10 µM: > 120 min
[2]
  dG_exp, experimental binding free energy: –13.5 kcal/mol
[3]; intravenous
  t1/2 (half-life): 8.5 min
[3]; [16]
  clearance: high clearance
[3]; [11]
  half-life: 9 min
[3]; [12]
  clearance: 11 mL/min/kg
[4]; [13]
  fraction unbound at 4 h, 100 µM: 0.371
In vitro [6]
  half-life at 10 µM: > 120 min
[7]; [15]
  fraction unbound at 4 h, 100 µM: 0.37
[7]; [14]
  fraction unbound at 4 h, 100 µM: 0.019
HepG2
  IC50: > 10 µM
HeLa S3
  IC50: > 10 µM
HL-60
  IC50: > 10 µM
CCRF-CEM
  IC50: > 10 µM
[8]
  IC50: > 10 µM
[9]
  solubility at 2 h: 98 µM (≈ 51.5 µg/mL)

## O=P(O)(O)CP(=O)(O)OC[C@H]1O[C@@H](n2ccc3c(-c4ccsc4)ncnc32)[C@H](O)[C@@H]1O [4A.4]
In vitro [1]
  half-life at 10 µM: > 120 min
[2]
  dG_exp, experimental binding free energy: –13.2 kcal/mol
[3]; intravenous
  t1/2 (half-life): 4.5 min
[3]; [16]
  clearance: high clearance
[3]; [11]
  half-life: 5 min
[3]; [12]
  clearance: 12 mL/min/kg
[4]; [13]
  fraction unbound at 4 h, 100 µM: 0.726
In vitro [6]
  half-life at 10 µM: > 120 min
[7]; [15]
  fraction unbound at 4 h, 100 µM: 0.82
[7]; [14]
  fraction unbound at 4 h, 100 µM: 0.125
HepG2
  IC50: > 10 µM
HeLa S3
  IC50: > 10 µM
HL-60
  IC50: 3.4 µM
CCRF-CEM
  IC50: 9.7 µM
[8]
  IC50: > 10 µM
[9]
  solubility at 2 h: 90 µM (≈ 44.2 µg/mL)

## Nc1ccc(-c2nc(Cl)nc3c2ccn3[C@@H]2O[C@H](COP(=O)(O)CP(=O)(O)O)[C@@H](O)[C@H]2O)c2ccccc12 [7B.33]
In vitro [1]
  half-life at 10 µM: > 120 min
[2]
  dG_exp, experimental binding free energy: –14.1 kcal/mol
[4]; [13]
  fraction unbound at 4 h, 100 µM: 0.374
[5]
  Mics (hu) comp remaining 60 min: 109%
  microsomal CLint at 10 µM: < 2 µL/min/mg
In vitro [6]
  half-life at 10 µM: > 120 min
[7]; [14]
  fraction unbound at 4 h, 100 µM: ≤ 0.01
HepG2
  IC50: 7.9 µM
HeLa S3
  IC50: 8.7 µM
HL-60
  IC50: 9.1 µM
CCRF-CEM
  IC50: 9.6 µM
[8]
  IC50: 8.8 µM
[9]
  solubility at 2 h: > 100 µM
[10]
  microsomal CLint at 10 µM: < 2 µL/min/mg

## Nc1nc(-c2ccc3ccccc3c2)c2ccn([C@@H]3O[C@H](COP(=O)(O)CP(=O)(O)O)[C@@H](O)[C@H]3O)c2n1 [11C.7]
In vitro [1]
  half-life at 10 µM: > 120 min
[2]
  dG_exp, experimental binding free energy: –13.8 kcal/mol
[4]; [13]
  fraction unbound at 4 h, 100 µM: 0.305
[5]
  Mics (hu) comp remaining 60 min: 100%
  microsomal CLint at 10 µM: < 1 µL/min/mg
In vitro [6]
  half-life at 10 µM: > 120 min
[7]; [14]
  fraction unbound at 4 h, 100 µM: 0.037
HepG2
  IC50: > 10 µM
HeLa S3
  IC50: > 10 µM
HL-60
  IC50: > 10 µM
CCRF-CEM
  IC50: > 10 µM
[8]
  IC50: > 10 µM
[9]
  solubility at 2 h: > 100 µM
[10]
  Mics (m) comp remaining 60 min: 97%
  microsomal CLint at 10 µM: 2 µL/min/mg

## O=P(O)(O)CP(=O)(O)OC[C@H]1O[C@@H](n2cnc3c(-c4cccc5c4CCCC5)ncnc32)[C@H](O)[C@@H]1O [31A.12]
In vitro [1]
  half-life at 10 µM: > 120 min
[2]
  dG_exp, experimental binding free energy: –11.8 kcal/mol
[4]; [13]
  fraction unbound at 4 h, 100 µM: 0.509
[5]
  Mics (hu) comp remaining 60 min: 102%
  microsomal CLint at 10 µM: < 1 µL/min/mg
In vitro [6]
  half-life at 10 µM: > 120 min
[7]; [14]
  fraction unbound at 4 h, 100 µM: 0.084
HepG2
  IC50: > 10 µM
HeLa S3
  IC50: > 10 µM
HL-60
  IC50: > 10 µM
CCRF-CEM
  IC50: > 10 µM
[8]
  IC50: > 10 µM
[9]
  solubility at 2 h: 80 µM (≈ 43.2 µg/mL)
[10]
  Mics (m) comp remaining 60 min: 88%
  microsomal CLint at 10 µM: 6 µL/min/mg
